The target in assay [1] is Sodium-dependent serotonin transporter (Rattus norvegicus) (UniProt P31652). The assay can be described thus: Displacement of [3H]citalopram from Sprague-Dawley rat brain SERT at 100 uM after 60 mins by liquid scintillation counting analysis relative to control. It counts as tissue-based. A general note: Displacement assays read how much labelled ligand stays bound in the presence of the test substance.

For assay [2], the species on record is Rattus norvegicus. Kind of assay: Displacement of [3H]nisoxetine from Sprague-Dawley rat brain NET at 100 uM after 180 mins by liquid scintillation counting analysis relative to control. Format: tissue-based.
A short description of assay [3]: Displacement of [3H]nisoxetine from Sprague-Dawley rat brain NET after 180 mins by liquid scintillation counting analysis. Format: tissue-based.
For assay [4], the target named is Sodium-dependent serotonin transporter (Rattus norvegicus, UniProt P31652). Kind of assay: Displacement of [3H]citalopram from Sprague-Dawley rat brain SERT after 60 mins by liquid scintillation counting analysis. Format: tissue-based.
Sequence of Sodium-dependent serotonin transporter (P31652 whole entry): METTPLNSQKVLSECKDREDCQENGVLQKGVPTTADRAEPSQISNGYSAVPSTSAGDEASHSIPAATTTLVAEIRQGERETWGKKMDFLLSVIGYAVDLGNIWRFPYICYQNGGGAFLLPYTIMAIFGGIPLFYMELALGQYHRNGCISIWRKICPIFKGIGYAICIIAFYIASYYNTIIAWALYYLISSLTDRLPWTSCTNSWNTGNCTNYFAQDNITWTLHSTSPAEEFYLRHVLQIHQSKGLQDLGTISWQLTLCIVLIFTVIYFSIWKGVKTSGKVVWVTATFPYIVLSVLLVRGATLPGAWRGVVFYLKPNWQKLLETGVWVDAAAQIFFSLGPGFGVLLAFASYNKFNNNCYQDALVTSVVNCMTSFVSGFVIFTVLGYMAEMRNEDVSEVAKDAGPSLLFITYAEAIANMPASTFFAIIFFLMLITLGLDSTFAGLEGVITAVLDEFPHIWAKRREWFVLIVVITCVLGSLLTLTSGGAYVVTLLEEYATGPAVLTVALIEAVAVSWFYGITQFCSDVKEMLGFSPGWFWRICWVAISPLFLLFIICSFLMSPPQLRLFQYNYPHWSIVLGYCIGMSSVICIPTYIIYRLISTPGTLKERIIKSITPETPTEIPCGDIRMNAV
In assay [5] the target is T1, Sodium-dependent dopamine transporter (Rattus norvegicus, UniProt P23977). Kind of assay: Displacement of [3H]WIN35,428 from Sprague-Dawley rat brain DAT after 120 mins by liquid scintillation counting analysis. Format: tissue-based.
T1 sequence (P23977 whole entry): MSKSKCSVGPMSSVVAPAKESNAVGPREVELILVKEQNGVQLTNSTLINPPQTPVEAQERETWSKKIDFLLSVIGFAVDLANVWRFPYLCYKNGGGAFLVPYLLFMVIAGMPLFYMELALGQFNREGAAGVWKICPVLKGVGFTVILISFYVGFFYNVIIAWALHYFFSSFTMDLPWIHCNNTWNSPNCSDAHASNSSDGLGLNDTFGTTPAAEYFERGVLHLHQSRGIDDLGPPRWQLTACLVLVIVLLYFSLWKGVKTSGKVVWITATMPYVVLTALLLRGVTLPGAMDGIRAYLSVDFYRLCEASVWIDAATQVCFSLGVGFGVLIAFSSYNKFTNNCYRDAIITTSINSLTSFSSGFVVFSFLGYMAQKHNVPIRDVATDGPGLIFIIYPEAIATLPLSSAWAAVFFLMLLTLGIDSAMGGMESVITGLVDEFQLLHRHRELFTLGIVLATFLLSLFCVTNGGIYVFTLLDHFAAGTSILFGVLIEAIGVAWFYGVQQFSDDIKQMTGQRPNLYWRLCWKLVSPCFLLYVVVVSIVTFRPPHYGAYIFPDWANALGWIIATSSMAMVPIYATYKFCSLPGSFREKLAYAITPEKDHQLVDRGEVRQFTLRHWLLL
Assay [6] is filed under the species Rattus norvegicus. The assay can be described thus: Selectivity ratio of Ki for Sprague-Dawley rat brain SERT to Ki for Sprague-Dawley rat brain DAT.
Assay [7] concerns the target T1, Sodium-dependent dopamine transporter. The assay can be described thus: Displacement of [3H]WIN35,428 from rat brain DAT. Format: tissue-based.

Sequence of Sodium-dependent serotonin transporter (Rattus norvegicus) (P31652 whole entry): as the sequence (P31652 whole entry) above

As to `CCCCNC(=O)CSC(c1ccccc1)c1ccccc1`, the inhibition (in assay [1]; in the assay filed under Rattus norvegicus [2]) was less than 50% in each case.

Consider `NC(=O)CSC(c1ccccc1)c1ccccc1`, for which, in assay [3], the affinity, expressed as Ki, was 285 µM. Also, in the assay listed under Rattus norvegicus [2], the inhibition – broadly, the share of the control response that was lost under treatment – is less than 50%.

`CNC(=O)CSC(c1ccc(Br)cc1)c1ccc(Br)cc1`: the inhibition constant Ki (as a rule, the equilibrium dissociation constant of an inhibitor or competing ligand from its target) in assay [3] was found to be 11 µM.

Compound `CCCNC(=O)CSC(c1ccccc1)c1ccccc1` yielded an inhibition in assay [1] of less than 50%. The Ki in assay [4] came out at 419 µM; in assay [3] it was 68 µM.

As to `O=C(CSC(c1ccccc1)c1ccccc1)NCC1CC1`, the Ki was determined as 20.5 µM in assay [4] and 13.6 µM in assay [5]. In the assay listed under Rattus norvegicus [2], this compound showed an inhibition of less than 50%.

The compound `CNC(=O)CSC(c1ccccc1)c1ccccc1` gave an inhibition constant Ki in assay [4] of 656 µM.

As for `O=C(CSC(c1ccccc1)c1ccccc1)NCCCCc1ccccc1`, the inhibition in assay [1] was less than 50%.

Regarding `[O-][S+](CCNCCCc1ccccc1)C(c1ccc(F)cc1)c1ccc(F)cc1` (stereo not given), the values for the Ki in assay [4] and in assay [5] were 1.28 µM and 0.183 µM, respectively.

Compound `CNC(=O)CSC(c1ccc(Cl)cc1)c1ccc(Cl)cc1` yielded an inhibition constant (Ki) in assay [4] of 10.7 µM.

Turning to `NC(=O)C[S+]([O-])C(c1cccc(F)c1)c1cccc(F)c1` (stereo not given), the inhibition (in assay [1]; in the assay listed under Rattus norvegicus [2]) was less than 50% throughout. In addition, in assay [5], the affinity, expressed as Ki, was 5.93 µM.

On to `O=C(CSC(c1ccc(Br)cc1)c1ccc(Br)cc1)NCCCc1ccccc1`, for which the Ki in assay [3] was 35.5 µM; in assay [5], 0.238 µM.

As to `[O-][S+](CCNCCCc1ccccc1)C(c1ccc(Br)cc1)c1ccc(Br)cc1` (stereo not given), the Ki amounted to 0.557 µM in assay [4], 8.65 µM in assay [3] and 1.27 µM in assay [5].

Take `CNC(=O)C[S+]([O-])C(c1ccccc1)c1ccccc1` (stereo not given): the inhibition (in assay [1]; in the assay filed under Rattus norvegicus [2]) was less than 50% each time. Also, affinity in assay [5] was put at a Ki of 13.1 µM.

Consider `O=C(CSC(c1ccc(Br)cc1)c1ccc(Br)cc1)NCC1CC1`, for which the results for the Ki in assay [4] and in assay [5] were 7.03 µM and 0.975 µM, respectively. The same compound gave an inhibition in the assay filed under Rattus norvegicus [2] of less than 50%.

In assay [4], `O=C(C[S+]([O-])C(c1ccc(Br)cc1)c1ccc(Br)cc1)NCCCc1ccccc1` (stereo not given) returned a Ki of 0.892 µM. This compound displayed an inhibition in the assay filed under Rattus norvegicus [2] of less than 50%.

Take `c1ccc(CCCNCCSC(c2ccccc2)c2ccccc2)cc1`: the Ki in assay [4] was determined as 0.927 µM; in assay [3] it was 5.5 µM.

On to `CCCCNCC[S+]([O-])C(c1ccccc1)c1ccccc1` (stereo not given), for which the Ki worked out at 63.6 µM in assay [4] and 138 µM in assay [3].

For the compound `NC(=O)CSC(c1cccc(Cl)c1)c1cccc(Cl)c1`, the inhibition in assay [1] is less than 50%. Moreover, the inhibition constant (Ki) stood at 808 µM in assay [4] and 45.4 µM in assay [3]. Also, the Ratio Ki in the assay filed under Rattus norvegicus [6] was greater than 2900.

With `Cc1ccc(C(c2ccc(C)cc2)[S+]([O-])CC(N)=O)cc1` (stereo not given), the inhibition (in assay [1]; in the assay filed under Rattus norvegicus [2]) was less than 50% each time.

`CC(=O)N1[C@@H]2CC[C@H]1C[C@H](OC(c1ccc(F)cc1)c1ccc(F)cc1)C2` gave a Ki in assay [7] of 2.34 µM.

`NC(=O)C[S+]([O-])C(c1cccc(Cl)c1)c1cccc(Cl)c1` (stereo not given): the inhibition (in assay [1]; in the assay filed under Rattus norvegicus [2]) was less than 50% throughout.

In the case of `NCC[S+]([O-])C(c1ccccc1)c1ccccc1` (stereo not given), the affinity in assay [4], expressed as Ki, was 3.38 µM.

In the case of `NC(=O)C[S+]([O-])C(c1ccccc1)c1cccc(Br)c1` (racemic), the inhibition (in assay [1]; in the assay filed under Rattus norvegicus [2]) was less than 50% throughout.

As to `[O-][S+](CCNCCCc1ccccc1)C(c1ccc(Cl)cc1)c1ccc(Cl)cc1` (stereo not given), the Ki in assay [4] was 0.553 µM; in assay [3], 5.67 µM; in assay [5] it was 0.645 µM.

As for `CCCNC(=O)CSC(c1ccc(Cl)cc1)c1ccc(Cl)cc1`, affinity in assay [4] was put at a Ki of 10.1 µM.

As to `O=C(CSC(c1ccc(F)cc1)c1ccc(F)cc1)NCC1CC1`, the inhibitory constant (Ki) came to 34 µM in assay [4] and 6.7 µM in assay [5].

`NCCSC(c1ccccc1)c1ccccc1`: the inhibition constant Ki in assay [4] amounted to 0.221 µM.

With `CCCNC(=O)CSC(c1ccc(F)cc1)c1ccc(F)cc1`, the values for the Ki in assay [4] and in assay [3] were 44.2 µM and 59.7 µM, respectively.

In the case of `CCCCNCCSC(c1ccccc1)c1ccccc1`, the Ki is 5.7 µM in assay [4], 11.5 µM in assay [3] and 0.31 µM in assay [5].

The compound `O=C(CSC(c1ccc(F)cc1)c1ccc(F)cc1)NCCCc1ccccc1` returned a Ki in assay [4] of 3.5 µM. In the assay listed under Rattus norvegicus [2], this compound showed an inhibition of less than 50%.

`O=C(CSC(c1ccc(Br)cc1)c1ccc(Br)cc1)NCCCCc1ccccc1`: the inhibition (in assay [1]; in the assay listed under Rattus norvegicus [2]) was less than 50% in each case.

As for `CCCNC(=O)CSC(c1ccc(Br)cc1)c1ccc(Br)cc1`, the Ki in assay [3] turned out to be 10.6 µM.

As to `C=CCNC(=O)CSC(c1ccccc1)c1ccccc1`, the inhibition (in assay [1]; in the assay listed under Rattus norvegicus [2]) was less than 50% throughout. The values for the Ki in assay [4], in assay [3] and in assay [5] were 303 µM, 171 µM and 8.37 µM, respectively.

These data come from ChEMBL document CHEMBL3124844 (J Med Chem, 2014).
